Results published in patent US9133235B2, “Macrocyclic antagonists of the motilin receptor for treatment of gastrointestinal dysmotility disorders” (Ocera Therapeutics, Inc., priority 2006, dated 2015).
“And” between values parts separate entries of the source, which are not always exact repeats. Equal values may be shown once.

Columns and labels:
[1] = Oral bioavailability in rat of representative formulations of compound 552; format: in vivo
Text: The pharmacokinetic behavior of compound of the invention can be ascertained by methods well known to those skilled in the art. (Wilkinson, G. R. “Pharmacokinetics: The Dynamics of Drug Absorption, Distribution, and Elimination” in Goodman & Gilman's The Pharmacological Basis of Therapeutics, Tenth Edition, Hardman, J. G.; Limbird, L. E., Eds., McGraw Hill, Columbus, Ohio, 2001, Chapter 1.) The following method was used to investigate the pharmacokinetic parameters (elimination half-life, total plasma clearance, etc.) for intravenous, subcutaneous and oral administration of compounds of the present invention.
Preparation of Representative Formulations of Compounds of the Invention
The pharmacokinetic parameters of representative formulations are determined through established methods known to those skilled-in the art as previously referenced in Method 3-I. Results with representative formulations for a representative compound of the present invention are shown below.

[2] = test system: irinotecan-induced CID in dogs; experiment: Dog model of chemotherapy-induced diarrhea; format: in vivo; settings: FIG. 19
Text: The objective of this study was to determine the efficacy of representative macrocyclic compounds of the present invention in chemotherapy-induced diarrhea (CID) following intravenous administration to the male beagle dog (Canis familiaris) for up to 32 days. Comparison with existing agents utilized for this condition, octreotide and loperamide, was an additional objective.
Twenty-one (21) male naïve Beagle dogs were randomly assigned to 7 groups and treated as follows:
The test compounds, controls and comparators were prepared at appropriate intervals. All formulations intended for administration to the test animals were stored refrigerated at 2-8° C. Irinotecan was obtained as a sterile solution for intravenous injection containing irinotecan hydrochloride trihydrate at a concentration of 20 mg/mL, ready to use. The irinotecan formulation for dosing the animals (0.5 mg/mL) in Group 1 (Cycles 1 and 2 only) was achieved by dilution of 20 mg/mL formulation with 5% dextrose for injection, USP. […]
A total of 21 males and 2 spare males were obtained from a commercial supplier (for example Marshall BioResources, North Rose, N.Y.) with ages 5 to 7 months old at onset of treatment and weights 6-9 kg at onset of treatment. […] Temperature and relative humidity were monitored continuously and recorded 4 times daily. […]

[3] = oral 8 mg/kg, 5% HP-β-CD in water
[4] = oral 8 mg/kg, Cremophor EL/Lysorbate 80/Soybean oil
[5] = oral 8 mg/kg, Oleic Acid/Labrafil
[6] = plasma, IV 2 mg/kg, 5% HP-β-CD in water
[7] = plasma, iv, 2 mg/kg, IV 2 mg/kg, 5% HP-β-CD in water
[8] = plasma, po, 8 mg/kg, oral 8 mg/kg, 5% HP-β-CD in water
[9] = plasma, po, 8 mg/kg, oral 8 mg/kg, Cremophor EL/Lysorbate 80/Soybean oil
[10] = plasma, po, 8 mg/kg, oral 8 mg/kg, Oleic Acid/Labrafil

F (%) (average) [1, 3]: 10 ± 5%
Tmax (min) [1, 3]: 5/15
F (%) (individual results) ([1]; oral 8 mg/kg, 5% HP-β-CD in water, 8 mg/kg): 6% and 15% and 9%
F (%) (average) [1, 4]: 16 ± 1%
Tmax (min) [1, 4]: 15/30
F (%) (individual results) ([1]; oral 8 mg/kg, Cremophor EL/Lysorbate 80/Soybean oil, 8 mg/kg): 18% and 15% and 16%
F (%) (average) [1, 5]: 14 ± 7%
Tmax (min) [1, 5]: 30/60
F (%) (individual results) ([1]; oral 8 mg/kg, Oleic Acid/Labrafil, 8 mg/kg): 7% and 21% and 15%
Clearance [1, 6]: 55 ± 10 mL/min/kg
Tmax [1, 6]: 5 min
half-life [1, 6]: 45 ± 13 min
AUC(0-inf) [1, 7]: 616 ng·h/mL
Cmax [1, 7]: 1720 ± 299 ng/mL
AUC(0-inf) [1, 8]: 255 ng·h/mL
Cmax [1, 8]: 369 ± 97 ng/mL
AUC(0-inf) [1, 9]: 397 ng·h/mL
Cmax [1, 9]: 229 ± 162 ng/mL
AUC(0-inf) [1, 10]: 357 ng·h/mL
Cmax [1, 10]: 143 ± 77 ng/mL
Compound: CCC[C@@H]1NC(=O)[C@@H](C(C)C)NC(=O)[C@@H](Cc2ccc(O)c(Cl)c2)N[C@@H](C)COc2ccccc2CCCNC1=O [Compound 552]
efficacy in the treatment of irinotecan-induced CID ([2]; intravenous infusion, versus the current standard of care (octreotide, loperamide)): superior efficacy
onset and duration of action in irinotecan-induced CID ([2]; versus the current standard of care): quicker onset and longer duration of action
